Measured values reported in patent US8354441B2, “Oxazoline derivatives” (Hoffmann-La Roche Inc., priority 2009, dated 2013).

How the values were obtained:
[1] = target: T1, mouse TAAR1 (Mus musculus, UniProt Q923Y8); assay: TAAR1 radioligand binding with [3H]-rac-2-(1,2,3,4-tetrahydro-1-naphthyl)-2-imidazoline, membranes of stably transfected HEK293 cells; conditions: first value of the cell, read-out: Ki (μM) mouse/rat: mouse
T1 construct: expressed in transfected cells; host or cells: HEK293 (ATCC # CRL-1573), stably transfected with pIRESneo2 expression plasmid
T1 sequence (Q923Y8 whole entry): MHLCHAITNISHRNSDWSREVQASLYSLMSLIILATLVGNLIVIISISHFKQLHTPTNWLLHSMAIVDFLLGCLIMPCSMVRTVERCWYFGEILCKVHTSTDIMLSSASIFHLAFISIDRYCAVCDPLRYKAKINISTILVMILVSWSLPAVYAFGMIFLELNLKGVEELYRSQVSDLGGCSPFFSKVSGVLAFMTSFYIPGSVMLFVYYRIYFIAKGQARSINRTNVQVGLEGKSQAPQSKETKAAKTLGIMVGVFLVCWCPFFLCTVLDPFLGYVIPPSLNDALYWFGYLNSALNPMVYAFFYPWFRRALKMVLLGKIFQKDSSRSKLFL
Method in brief: (§1)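 Competition binding: competitors spanning 10 pM–30 μM displace 60 nM [3H]-rac-2-(1,2,3,4-tetrahydro-1-naphthyl)-2-imidazoline from stably transfected HEK293 membranes (mouse or rat receptor), 30 min, 4 °C, pH 7.0 buffer with Mg2+/Ca2+. Bound label counted after GF/C filtration; 10 μM unlabelled ligand defines non-specific binding.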

[2] = target: T2, rat TAAR1 (Rattus norvegicus, UniProt Q923Y9); assay: as above; conditions: second value of the cell, read-out: Ki (μM) mouse/rat: rat
T2 construct: expressed in transfected cells; host or cells: HEK293 (ATCC # CRL-1573), stably transfected with pIRESneo2 expression plasmid
T2 sequence (Q923Y9 whole entry): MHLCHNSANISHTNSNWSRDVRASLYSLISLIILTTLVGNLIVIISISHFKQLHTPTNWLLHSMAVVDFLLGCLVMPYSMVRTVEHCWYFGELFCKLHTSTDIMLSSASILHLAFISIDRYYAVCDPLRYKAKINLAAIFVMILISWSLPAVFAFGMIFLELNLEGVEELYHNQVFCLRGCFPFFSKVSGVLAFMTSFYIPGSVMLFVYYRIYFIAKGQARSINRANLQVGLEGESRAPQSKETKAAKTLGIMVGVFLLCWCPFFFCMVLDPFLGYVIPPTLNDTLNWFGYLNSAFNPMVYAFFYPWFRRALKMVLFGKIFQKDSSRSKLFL
Method in brief: as §1

Row | Ki [1] | Ki [2] | Structure (SMILES)
1 | 0.0027 µM | 0.0037 µM | NC1=N[C@@H](CCc2ccc(NC(=O)c3ccnc(-c4ccncc4)c3)cc2)CO1 [Example 199, (S)-N-(4-(2-(2-Amino-4,5-dihydrooxazol-4-yl)ethyl)phenyl)-2,4′-bipyridine-4-carboxamide]
2 | 0.0007 µM | 0.0003 µM | NC1=N[C@@H](CCc2ccc(NC(=O)c3cc(Cl)ccn3)cc2)CO1 [Example 90, 4-Chloro-pyridine-2-carboxylic acid {4-[2-((S)-2-amino-4,5-dihydro-oxazol-4-yl)-ethyl]-phenyl}-amide]
3 | 0.0001 µM | 0.0003 µM | NC1=N[C@@H](CCc2ccc(NC(=O)Nc3ccc(Cl)cn3)cc2)CO1 [Example 35, 1-{4-[2-((S)-2-Amino-4,5-dihydro-oxazol-4-yl)-ethyl]-phenyl}-3-(5-chloro-pyridin-2-yl)-urea]
